Measurements reported in patent publication US12241114B2, “Biophysical platform for drug development based on energy landscape” (BRANDEIS UNIVERSITY, priority 2014, dated 2025).
Substitutions are numbered along the chain they refer to.

Assays:
Aurora A wild-type = biological target: T1, Aurora A wild-type (Homo sapiens, UniProt O14965); assay: FRET stopped-flow kinetics of MantATP binding to Aurora A; conditions: 10° C., double exponential
T1 sequence (O14965 122-403): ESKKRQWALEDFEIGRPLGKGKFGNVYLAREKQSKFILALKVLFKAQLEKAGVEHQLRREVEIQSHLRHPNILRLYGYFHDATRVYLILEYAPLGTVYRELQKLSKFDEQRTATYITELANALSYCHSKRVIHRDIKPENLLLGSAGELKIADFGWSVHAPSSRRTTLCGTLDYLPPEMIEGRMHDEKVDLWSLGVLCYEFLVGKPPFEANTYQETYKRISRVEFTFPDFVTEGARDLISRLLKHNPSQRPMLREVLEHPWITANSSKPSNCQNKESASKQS
Procedure: FRET using intrinsic tryptophan fluorescence is used to monitor MantATP binding kinetics to Aurora A at 10° C. […] In the release of MantATP experiment or koff, 10 μM/10 μM Aurora A/MantATP complex were diluted with buffer (ratio 1:10). A significant decrease in the fluorescence intensity of Aurora A (excitation at 295 nm, emission cut-off at 395 nm) can be seen due to the MantATP release.

Y199H modern Aurora A = biological target: T2, Y199H modern Aurora A (Homo sapiens, UniProt O14965, T288V/Y199H); assay: Isothermal titration calorimetry of TPX2 binding to Y199H Aurora A; conditions: Y199H versus modern Aurora A
T2 sequence (O14965 122-403 Y199H/T288V): T1 sequence (O14965 122-403) with Y78H, T167V
Procedure: FIGS. 33A-33C are plots and schematics showing Y199 is an Aurora A hotspot important in TPX2 binding.
All titrations were carried out using Nano ITC (TA instruments) and analyzed via the NanoAnalyze software using the independent fit model. Injectant was added in […] volume, every 180 s, with a constant stirring speed at 350 rpm and at 25° C. Prior to ITC titration, both protein and peptide were dialyzed/resuspended in 20 mM TrisHCl, 200 mM NaCl, 10% (v/v) glycerol, 1 mM TCEP, pH 7.50.

[1] = biological target: T3, unphosphorylated Aurora A (Homo sapiens, UniProt O14965); assay: Stopped-flow tryptophan fluorescence binding and dissociation kinetics on unphosphorylated Aurora A
T3 sequence (O14965 122-403): T1 sequence (O14965 122-403)
Procedure: The stopped-flow instrument is a SX20 series from AppliedPhotophysics.
In the following equations, K1, K2 and K3 equal to:
[formula] Error bars calculations of the dissociation constant parameter (calculated from the kinetics) are calculated using classical error propagation equations. Aurora A Wild-Type Binding to MantATP

For MantATP, the “plateau of second observed rate constant” value (Aurora A wild-type) was “around 20 s^−1”.

In the case of “modern TPX2: modern-day TPX2 protein, allosteric activator of Aurora A, residues 1-45 (MSQVKSSYSYDAPSDFINFSSLDDEGDTQNIDSWFEEKANLENKL; UniProt Q9ULW0 1-45, looked up, fragment)”, the “weakening of binding by Y199H mutation of Aurora A” value (Y199H modern Aurora A) is reported as “approximately 20 fold”.

With `CO[C@@H](C(=O)N1Cc2n[nH]c(NC(=O)c3ccc(N4CCN(C)CC4)cc3)c2C1)c1ccccc1` [Danusertib] the “tighter binding from the conformational change after drug binding” value [1] was “three orders of magnitude”, the “weakening of overall affinity by the DFG-in/-out equilibrium” value [1] was 20% and the dissociation kinetics ([1]; 25° C., after 30-fold dilution of the complex) was “slow, taking hours to be released”. The “Keq of the induced fit step” value ([1]; 25° C., global fit) was 5×10^−4.

In the case of `Cc1ccc(NC(=O)c2ccc(CN3CCN(C)CC3)cc2)cc1Nc1nccc(-c2cccnc2)n1` [Gleevec], the “apparent rate constant of dissociation” value ([1]; 10° C., after 10-fold dilution of the complex) is reported as 50 s⁻¹ and the “observed off rate, times faster than the Danusertib off rate” value ([1]; Gleevec versus Danusertib) is reported as 10^6-10^7.
